# Experimental data as given in US11185523B2, “Use of bipolar trans carotenoids with chemotherapy and radiotherapy for treatment of cancer” (DIFFUSION PHARMACEUTICALS LLC, priority 2016, dated 2021).
# Like-named read-outs stand apart in the source and are kept apart here.
# What was measured:
# [1] = system: metastatic pancreatic cancer; details: metastatic disease, erlotinib with gemcitabine vs gemcitabine alone, cited from earlier work; for one-year survival rate: P=0.023; for median overall survival: P=0.038
# [2] = system: metastatic pancreatic cancer; details: treatment naive patients with metastatic cancer; nab-paclitaxel plus gemcitabine vs gemcitabine; cited from earlier work
# DMBA breast tumors = test: DMBA breast tumor model, TSC before chemotherapy; format: in vivo; details: TSC and control groups
# Description: Breast tumors were induced through injection of DMBA (dimethylbenzantracene) under the mammary tissue of female rats. The tumors usually grow in most rats and reach measurable conditions after 10 days.
# The following studies used a method in which a 3-mL syringe is filled first with 1 ml of DMBA dissolved in sunflower seed oil (20 mg DMBA per mL of solution). Following that, 2 mL's of air are pulled into the syringe. The needle of the syringe is then inserted under the mammary tissue near a hind leg and the air in the syringe is carefully injected. The injection of the air forms a “pocket”, and then the 1 mL of DMBA solution is injected into that pocket.
# After the tumors have grown up (about 10 days), their volumes are estimated by measuring the diameter (d) and the length (L) of the football-shaped tumors formed. This is done using calipers after feeling the tumor with one's fingers. To estimate the volume of the tumor, you multiply the diameter squared times the length and divide by 2: Tumor volume (in mm3)={(d in mm)^22}×(L in mm)
# TSC or saline (controls) was injected in the tail vein of the rats at a volume of 0.1 mL and a dose of 0.25 mg/kg TSC about 1-2 hours before the chemotherapeutic agent was injected intraperitoneally (IP) in the rats.
# In order to understand which dosages are efficacious when used with chemotherapy, a rat model of breast tumors was used. The model involves injecting the chemical dimethylbenzanthracene (DMBA) under the mammary gland of a female Sprague-Dawley rat. After a few days, tumors begin to grow and can be measured by feeling the football-shaped tumor under the skin and measured using calipers.
# pancreatic cancer = details: cited from earlier work; for overall survival: Folfirinox regimen vs gemcitabine
# recurrent GBM = details: cited from earlier work
# newly diagnosed GBM = details: cited from earlier work
compound,measurement,setting,value
C#Cc1cccc(Nc2ncnc3cc(OCCOC)c(OCCOC)cc23)c1 [erlotinib],one-year survival rate,[1],23%
same,median overall survival,[1],6.24 months
"Nc1ccn([C@@H]2O[C@H](CO)[C@@H](O)C2(F)F)c(=O)n1 [gemcitabine, reference compound]",one-year survival rate,[1],17%
same,median overall survival,[1],5.91 months
same,overall survival,[2],6.7 months
same,mortality,"DMBA breast tumors; gemcitabine 5 mg/kg IP on days 0, 3",Most rats in both groups were dead on Day 7
same,mortality,"DMBA breast tumors; gemcitabine 10 mg/kg IP on days 0, 3",Most rats in both groups were dead on Day 6
same,overall survival,pancreatic cancer,6.8 months
Folfirinox,overall survival,pancreatic cancer,11.1 months
same,adverse events,pancreatic cancer; Folfirinox treatment,accompanied by serious adverse events
bevacizumab,overall six-month survival,"recurrent GBM; Phase 2 study, recurrent GBM",54%
same,six-month progression-free survival,"recurrent GBM; Phase 2 study, recurrent GBM, historical 9-15%",25%
same,six-month progression-free survival,"recurrent GBM; another Phase 2 study, lower dose but higher frequency",42.6%
same,"symptom burden, quality of life, neurocognitive function","newly diagnosed GBM; human, in vivo","increased symptom burden, a worse quality of life, and a decline in neurocognitive function"
same,progression free survival,"newly diagnosed GBM; radiation, TMZ and bevacizumab vs only radiation and TMZ, both studies",increase in progression free survival
same,overall survival,"newly diagnosed GBM; radiation, TMZ and bevacizumab vs only radiation and TMZ, two clinical trials",no difference in overall survival
